Tested on: GM3
Experiment: GM3 Elisa assay
Assay type: cell-based
Conditions: Table 3 (IC 50 Values); B16-FO cells; read-out: IC50_uM_Mean
Outline: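 Cellular GM3 ELISA: fixed cells probed with monoclonal anti-GM3 (NeuAc), HRP-conjugated anti-IgM and fluorogenic Quantablu substrate, read at Ex 325/Em 420. Cells were B16-FO, treated 2 days after a 6 h attachment on collagen-coated wells.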

Compound | IC50 [nM]
O=C(CCCCCS(=O)(=O)C1CCCCC1)N[C@H](CN1CC[C@@H](F)C1)[C@H](O)c1ccc(OCc2ccccc2)cc1 [Compound 578] | ≤ 100
O=C(N[C@H](CN1CCCC1)[C@H](O)c1ccc2c(c1)OCCO2)C1CCOCC1 [Compound 579] | 3000 to 10000
O=C(CC1CCOCC1)N[C@H](CN1CCCC1)[C@H](O)c1ccc2c(c1)OCCO2 [Compound 580] | 3000 to 10000
O=C(CCCCC1CCOCC1)N[C@H](CN1CCCC1)[C@H](O)c1ccc2c(c1)OCCO2 [Compound 581] | 100 to 1000
O=C(CCC1CCOCC1)N[C@H](CN1CCCC1)[C@H](O)c1ccc2c(c1)OCCO2 [Compound 582] | 3000 to 10000
COc1ccc(C(=O)CCCCCC(=O)N[C@H](CN2CC[C@H](OC)C2)[C@H](O)c2ccc3c(c2)OCCO3)cc1 [Compound 583] | 3000 to 10000
CCCCOc1ccc(C(O)[C@@H](CN2CC[C@@H](F)C2)NC(=O)CCCCCCCOC)cc1 (stereo partly shown) [Compound 584] | 100 to 1000
CCCCOc1ccc([C@@H](O)[C@@H](CN2CC[C@@H](F)C2)NC(=O)CCCCC(=O)C2CCCCC2)cc1 [Compound 585] | 100 to 1000
CCCCOc1ccc([C@@H](O)[C@@H](CN2CC[C@H](O)C2)NC(=O)CCCCCCCOC)cc1 [Compound 586] | ≤ 100
CCCCOc1ccc([C@@H](O)[C@@H](CN2CC[C@H](O)C2)NC(=O)CCCCC(=O)C2CCCCC2)cc1 [Compound 587] | 100 to 1000
CCCCOc1ccc(C(CN2CCCC2)NC(=O)CCCCC(=O)c2ccc(OC)cc2)cc1 (stereo not shown) [Compound 588] | 3000 to 10000
CCCCOc1ccc(CC(CN2CCCC2)NC(=O)CCCCC(=O)c2ccc(OC)cc2)cc1 (stereo not shown) [Compound 589] | 1000 to 3000
CCCCCCC1=CC([C@H](CN2CCCC2)[C@H](O)c2ccc3c(c2)OCCO3)NN1 (stereo partly shown) [Compound 591] | 3000 to 10000
CCCCOc1ccc([C@@H](O)C(CN2CC[C@H](O)C2)NC(=O)CCCCCCCOC)cc1 (stereo partly shown) [Compound 592] | ≤ 100
CCCCOc1ccc([C@@H](O)[C@@H](CN2CC[C@H](O)C2)NC(=O)CCCCCOC2CCC2)cc1 [Compound 593] | 100 to 1000
CCCCCCCC(=O)N[C@H](CN1CCC1)[C@H](O)c1ccc2c(c1)OCCO2 [Compound 594] | 1000 to 3000
CCCCCCCC(=O)N[C@H](CN1C(C)CCCC1C)[C@H](O)c1ccc2c(c1)OCCO2 (stereo partly shown) [Compound 595] | 3000 to 10000
CCCCCCCC(=O)N[C@H](CC1CC(OCCC)C1)[C@H](O)c1ccc2c(c1)OCCO2 (stereo partly shown) [Compound 596] | 3000 to 10000
CCCOC1CC(C[C@@H](NC(=O)CCOc2ccc(OC)cc2)[C@H](O)c2ccc3c(c2)OCCO3)C1 (stereo partly shown) [Compound 597] | 3000 to 10000
COC1CCC(OCCC(=O)N[C@H](CN2C(C)CCCC2C)[C@@H](O)c2ccc3c(c2)OCCO3)CC1 (stereo partly shown) [Compound 598] | 3000 to 10000
COc1ccc(OCCC(=O)N[C@H](CN2CCC2)[C@H](O)c2ccc3c(c2)OCCO3)cc1 [Compound 599] | 1000 to 3000
COc1ccc(C(=O)CCCCCC(=O)N[C@H](CN2CC(O)C2)[C@H](O)c2ccc3c(c2)OCCO3)cc1 [Compound 600] | 1000 to 3000
COc1ccc(OCCC(=O)N[C@H](CN2CC(O)C2)[C@H](O)c2ccc3c(c2)OCCO3)cc1 [Compound 601] | 3000 to 10000
COc1ccc(C(=O)CCCCCC(=O)N[C@H](CN2C(C)CCCC2C)[C@H](O)c2ccc3c(c2)OCCO3)cc1 (stereo partly shown) [Compound 602] | 3000 to 10000

Compound | IC50 [nM]
COc1ccc(C(=O)CCCCCC(=O)N[C@H](CN2CCC2)[C@H](O)c2ccc3c(c2)OCCO3)cc1 [Compound 603] | 100 to 1000
CCCOC1CN(C[C@@H](NC(=O)CCCCCC(=O)c2ccc(OC)cc2)[C@H](O)c2ccc3c(c2)OCCO3)C1 [Compound 604] | 3000 to 10000
CCCCCCCC(=O)N[C@H](CN1CCCCC1C)[C@H](O)c1ccc2c(c1)OCCO2 (stereo partly shown) [Compound 605] | 3000 to 10000
COc1ccc(OCCC(=O)N[C@H](CN2CCCCC2C)[C@H](O)c2ccc3c(c2)OCCO3)cc1 (stereo partly shown) [Compound 606] | 3000 to 10000
COc1ccc(C(=O)CCCCCC(=O)N[C@H](CN2CCCCC2C)[C@H](O)c2ccc3c(c2)OCCO3)cc1 (stereo partly shown) [Compound 607] | 1000 to 3000
COc1ccc(OCCC(=O)N[C@H](CN2CCCC(C)C2)[C@H](O)c2ccc3c(c2)OCCO3)cc1 (stereo partly shown) [Compound 608] | 3000 to 10000
COc1ccc(C(=O)CCCCCC(=O)N[C@H](CN2CCCC(C)C2)[C@H](O)c2ccc3c(c2)OCCO3)cc1 (stereo partly shown) [Compound 609] | 100 to 1000
COc1ccc(OCCC(=O)N[C@H](CN2CCC(C)CC2)[C@H](O)c2ccc3c(c2)OCCO3)cc1 [Compound 610] | 3000 to 10000
CCCCCCCC(=O)N[C@H](CN1CCC(C)CC1)[C@H](O)c1ccc2c(c1)OCCO2 [Compound 611] | 3000 to 10000
CC1CCN(C[C@@H](NC(=O)CCCCCC(=O)c2ccccc2)[C@H](O)c2ccc3c(c2)OCCO3)CC1 [Compound 612] | 3000 to 10000
CCCCCCCC(=O)N[C@H](CN1CCCC(C)C1)[C@H](O)c1ccc2c(c1)OCCO2 (stereo partly shown) [Compound 613] | 3000 to 10000
O=C(N[C@H](CN1CCCC1)[C@H](O)c1ccc2c(c1)OCCO2)C1(C(F)(F)F)CCC1 [Compound 614] | 3000 to 10000
O=C(N[C@H](CN1CCCC1)[C@H](O)c1ccc2c(c1)OCCO2)C(CCc1ccc(F)cc1)C(F)(F)F (stereo partly shown) [Compound 615] | 100 to 1000
O=C(N[C@H](CN1CCCC1)[C@H](O)c1ccc2c(c1)OCCO2)C1CCC(C(F)(F)F)CC1 (stereo partly shown) [Compound 616] | 3000 to 10000
O=C(CCCCOCC(F)(F)F)N[C@H](CN1CCCC1)[C@H](O)c1ccc2c(c1)OCCO2 [Compound 617] | 1000 to 3000
COc1ccc(C(=O)CCCCCC(=O)N[C@H](CN2CC(F)(F)C2)[C@H](O)c2ccc3c(c2)OCCO3)cc1 [Compound 618] | 3000 to 10000
O=C(CCCCCC(=O)C1CC1)N[C@H](CN1CCCC1)[C@H](O)c1ccc2c(c1)OCCO2 [Compound 619] | 1000 to 3000
O=C(CCCCCOCC(F)(F)F)N[C@H](CN1CCCC1)[C@H](O)c1ccc2c(c1)OCCO2 [Compound 620] | 100 to 1000
O=C(CCCCCC(F)(F)C(F)(F)F)N[C@H](CN1CCCC1)[C@H](O)c1ccc2c(c1)OCCO2 [Compound 621] | 1000 to 3000
COc1ccc(OCCC(=O)N[C@H](CN2CC(F)(F)C2)[C@H](O)c2ccc3c(c2)OCCO3)cc1 [Compound 622] | 3000 to 10000
CCCCCCCC(=O)N[C@H](CN1CC(F)(F)C1)[C@H](O)c1ccc2c(c1)OCCO2 [Compound 623] | 3000 to 10000
O=C(CC(F)(F)F)N[C@H](CN1CCCC1)[C@H](O)c1ccc2c(c1)OCCO2 [Compound 624] | 3000 to 10000
COc1ccc(C(=O)CCCCCC(=O)N[C@H](CN2CCC(F)(F)CC2)[C@H](O)c2ccc3c(c2)OCCO3)cc1 [Compound 625] | 3000 to 10000
COc1ccc(C(=O)CCCCCC(=O)N[C@H](CN2CCC(F)CC2)[C@H](O)c2ccc3c(c2)OCCO3)cc1 [Compound 626] | 100 to 1000

Compound | IC50 [nM]
COc1ccc(OCCC(=O)N[C@H](CN2CCC(F)(F)CC2)[C@H](O)c2ccc3c(c2)OCCO3)cc1 [Compound 627] | 3000 to 10000
O=C(CCCCCC(=O)c1ccc(F)cc1)N[C@H](CN1CCCC1)[C@H](O)c1ccc2c(c1)OCCO2 [Compound 628] | ≤ 100
CC(O)(CCCCCC(=O)N[C@H](CN1CCCC1)[C@H](O)c1ccc2c(c1)OCCO2)C1CC1 (stereo partly shown) [Compound 629] | 100 to 1000
O=C(CCCCCC(F)(F)C1CC1)N[C@H](CN1CCCC1)[C@H](O)c1ccc2c(c1)OCCO2 [Compound 630] | 100 to 1000
O=C(CCCC#CC1(O)CCCCC1)N[C@H](CN1CCCC1)[C@H](O)c1ccc2c(c1)OCCO2 [Compound 631] | 3000 to 10000
N#CCCCCCC(=O)N[C@H](CN1CCCC1)[C@H](O)c1ccc2c(c1)OCCO2 [Compound 632] | 3000 to 10000
CC(O)(CCCCCC(=O)N[C@H](CN1CCCC1)[C@H](O)c1ccc2c(c1)OCCO2)C1CCCC1 (stereo partly shown) [Compound 633] | 100 to 1000
O=C(CCCCCCOCC(F)(F)F)N[C@H](CN1CCCC1)[C@H](O)c1ccc2c(c1)OCCO2 [Compound 634] | 100 to 1000
O=C(N[C@H](CN1CCCC1)[C@H](O)c1ccc2c(c1)OCCO2)C1CC[C@@H](C(=O)c2ccc(F)cc2)C1 (stereo partly shown) [Compound 635] | 3000 to 10000
O=C(CC12CC3CC(CC(C3)C1)C2)N[C@@H](CN1CCCC1)C(O)c1ccc2c(c1)OCCO2 (stereo partly shown) [Compound 636] | 3000 to 10000
O=C(CCC12CC3CC(CC(C3)C1)C2)N[C@H](CN1CCCC1)[C@H](O)c1ccc2c(c1)OCCO2 [Compound 637] | 100 to 1000
O=C(N[C@H](CN1CCCC1)[C@H](O)c1ccc2c(c1)OCCO2)C1(C(=O)c2ccc(F)cc2)CC1 [Compound 638] | 3000 to 10000
O=C(CCCC(=O)c1ccc(F)cc1)N[C@H](CN1CCCC1)[C@H](O)c1ccc2c(c1)OCCO2 [Compound 639] | 100 to 1000
O=C(CCCCC(=O)c1ccc(F)cc1)N[C@H](CN1CCCC1)[C@H](O)c1ccc2c(c1)OCCO2 [Compound 640] | 100 to 1000
CC(O)(CCCCCC(=O)N[C@H](CN1CCCC1)[C@H](O)c1ccc2c(c1)OCCO2)C1CCCCC1 (stereo partly shown) [Compound 641] | ≤ 100
O=C(CCCOn1nnc2ccccc21)N[C@H](CN1CCCC1)[C@H](O)c1ccc2c(c1)OCCO2 [Compound 642] | 100 to 1000
O=C(CCCn1cccn1)N[C@H](CN1CCCC1)[C@H](O)c1ccc2c(c1)OCCO2 [Compound 643] | 1000 to 3000
O=C(CCCCCn1cccn1)N[C@H](CN1CCCC1)[C@H](O)c1ccc2c(c1)OCCO2 [Compound 644] | 1000 to 3000
O=C(COC1CCCCC1)N[C@H](CN1CCCC1)[C@H](O)c1ccc2c(c1)OCCO2 [Compound 645] | 3000 to 10000
Cc1noc(CCCCC(=O)N[C@H](CN2CC[C@@H](F)C2)[C@H](O)c2ccc3c(c2)OCCO3)n1 [Compound 646] | 3000 to 10000
O=C(CCCCOCC(F)(F)F)N[C@H](CN1CCCC1)[C@H](O)c1ccc(OCc2ccccc2)cc1 [Compound 647] | 100 to 1000
O=C(CCCCc1nc(C2CC2)no1)N[C@H](CN1CCCC1)[C@H](O)c1ccc2c(c1)OCCO2 [Compound 650] | 100 to 1000
